melting point	SMILES
238 to 240 °C	COc1ccc2cc3c(cc2c1)C(=O)OC3=O
176 to 177 °C	CNC(=O)C1Cc2c(n(C)c3ccc(OCc4ccccc4)cc23)C1 (configuration not stated)
191 to 193 °C	COc1cc(N)c(Cl)cc1C(=O)NCC1CCN(CCC(=O)c2ccc(O)cc2)CC1
171 to 173 °C	Nc1nonc1-c1nc2ccccc2n1COc1ccccc1
157 to 158 °C	CCOC(=O)COn1c2c([nH]c(=O)c1=O)CCC1=C2C=C(n2c(C)ccc2C)CC1
238 to 240 °C	O=C(O)N1C=CC=NC=C1
209 to 214 °C	Cc1nc(N2CCN(Cc3cccc(C(F)(F)F)c3)C2=O)sc1-c1cc[nH]n1
76 °C	Cc1cc(C#N)cc(C)c1C(=O)CBr
234 to 236 °C	Oc1ccc(O)c2nccnc12
198 °C	On1c(-c2ccncc2)nc2ccc(Cn3ccnc3)cc21
220 to 222 °C	Cc1cc(C=NNC(N)=S)ncc1[N+](=O)[O-]
75 to 76 °C	CCOC(=O)COc1ccc([N+](=O)[O-])cc1
242 to 244 °C	O=S(=O)(Nc1ccc2[nH]c3c(c2c1)CCNC3)c1c(Cl)nc2sccn12
163 to 166 °C	COc1ccc(C(=O)Nc2ccc3c(c2)CCCC3=O)cc1
82 to 84 °C	CCOC(=O)/C=C(/c1ccc(Cl)cc1)c1cccc(OC)c1OC
195 to 198 °C	CCOc1ccc([N+](=O)[O-])cc1NC(C)=O
188 °C	CCCCN1CC(=O)N2[C@@H](c3ccc(NS(C)(=O)=O)cc3)c3[nH]c4ccccc4c3C[C@@H]2C1=O (relative stereo)
169 to 171 °C	O=C1N(Cc2ccc3nonc3c2)c2ccccc2C12COc1cc3c(cc12)CCO3 (configuration not stated)
142 °C	Clc1ccc2nc(NCc3ccco3)nc(-c3ccccc3)c2c1
191 to 193 °C	COC(=O)c1sccc1S(=O)(=O)NC(=O)Nc1nc(OC)cc(OC)n1
199 to 200 °C	O=C(/C=C/c1ccc(S(=O)(=O)N2CCN(c3ccc([N+](=O)[O-])cc3)CC2)cc1)NO

melting point	SMILES
151 to 152 °C	Cc1cc(Cl)cc2c(-c3ccc(Cl)cc3)onc12
280 to 283 °C	CCCc1c(Oc2ccc(C(=O)O)cc2C(=O)O)ccc(C(C)=O)c1O
109 to 111 °C	CS(=O)(=O)Nc1ccc(OCCCI)cc1
164 °C	COc1cc(Nc2nccc(NS(=O)(=O)c3ccccc3)n2)cc(OC)c1OC
245 °C	Cc1cc(-c2cnn3c(C(F)(F)F)cc(-c4ccc(C(F)(F)F)c(OCC(F)(F)F)c4)nc23)cc(C)n1
98 to 99.5 °C	COC(=O)C(C)c1ccc2c(c1)C(=O)Cc1cccnc1S2 (configuration not stated)
160 to 162 °C	CC(C)(C)NC(=O)N1C(=O)C(C(=O)c2cccs2)c2ccc(Cl)cc21 (configuration not stated)
157 to 158 °C	C/C=C/CNC(=O)N1CC(Oc2ccc(C(F)(F)F)cc2)C1
89 to 90 °C	O=C(CCCO)c1ccc(CCNS(=O)(=O)c2ccccc2)cc1
139 to 141 °C	O=C(O)CCCCCc1c(OCc2ccccc2)ccc2cncn12
135 °C	CC(C)Nc1cccnc1N1CCN(C(=O)c2ccc(C(=O)NC[C@H](C)O)cc2)CC1
150 °C	O=C(O)c1ccc2c(c1)CCC(CO)O2 (configuration not stated)
135 °C	Cc1ccc(S(=O)(=O)Oc2ccccc2-c2cc3c(C(N)=O)cccc3[nH]2)cc1
105 to 120 °C	COc1ccc(C(=CC(=O)N2CCOCC2)c2ccc(O)cc2)cc1OC
153 to 155 °C	CCCCc1nc2cccc(C(=O)OC)c2n1Cc1ccc(-c2ccccc2-c2nnn[nH]2)cc1
136 to 139 °C	Cc1nc(N2CCN(Cc3ccc(F)cc3)C2=O)sc1C#N
149 to 151 °C	CCCOc1ccc(-c2ccc3c(c2)C=C(C(=O)Nc2ccc(CN(C)C4CCOCC4)cc2)CCN3C)cc1
99 °C	CC(=O)NCCN1CCCc2ccc(C)cc21
108 to 110 °C	CCOC(=O)c1cc2cc(-c3ccc(Cl)cc3)ccc2o1
165 to 166 °C	COc1cccc2c1OC(C(=O)Nc1ccncc1)C2CC(=O)OCc1ccccc1 (configuration not stated)

Further lines, the compound ahead of its results:

SMILES	melting point
NS(=O)(=O)c1cccc(C(=O)CCl)c1	118 °C
O=C(O)CCSc1nnc(S)s1	105 to 108 °C
CCCn1nc(C(C)C)c(C(=O)OC(C)OC(=O)OC2CCCCC2)c1Cc1ccc(-c2ccccc2-c2nnn[nH]2)cc1 (configuration not stated)	79 to 83 °C
CCN(CC)Cc1cc(Nc2ccnc3cc(Cl)ccc23)c2c(c1O)CCCC2	215 to 217 °C
CCCSc1ncc(C(=O)N[C@@H](Cc2c[nH]cn2)C(=O)O)n1Cc1ccccc1Cl	130 to 132 °C
C[C@@H]1CCN(C(=O)CC#N)C[C@@H]1N(C)c1ncnc2sccc12	74.3 °C
CCCN(C1=C(O)CC(C2CCCC2)(C2CCCC2)OC1=O)c1cccc(N)c1	173 to 175 °C
CON=C(N)C1=Nc2ccc(Cl)cc2C(c2ccccc2F)=NC1	120 to 124 °C
CCOC(=O)c1cn(C2CC2)c2c(F)c(F)c(F)c(F)c2c1=O	170 to 171 °C
CN(C)c1nc(C(=O)NCCO[N+](=O)[O-])cs1	94 to 95 °C
O=C(Nc1ccc(F)c(C(F)(F)F)c1)c1cccc2cc(OS(=O)(=O)C(F)(F)F)ccc12	171 to 172 °C
COc1cc2c(Nc3ccc(Sc4nccn4C)c(Cl)c3)c(C#N)cnc2cc1/C=C/CCO	273 to 278 °C
CCOc1ccc(-c2nc(-c3ccc(OC4OC(COC(C)=O)C(OC(C)=O)C(OC(C)=O)C4OC(C)=O)cc3)cs2)cc1OCC (configuration not stated)	180 to 181 °C
OCc1cncc(-c2ccccc2)c1	71 to 72 °C
COc1ccc2ccc(-n3nc(OCCN4CCOCC4)cc3C)cc2c1	143 to 147 °C
COc1cc2c3c(c(=O)n(C)c2cc1OC)CNCC3	178 to 179 °C
O=c1[nH]c2cc(F)c([N+](=O)[O-])c(Br)c2[nH]c1=O	320 to 325 °C
O=C1N(N2CCOCC2)c2ccccc2C1(Cc1ccnc(F)c1)c1ccccc1 (configuration not stated)	170 to 172 °C
Cc1cc(C(N)=O)ncc1C(c1c(F)ccc(F)c1F)S(=O)(=O)CCC(C)(F)F (configuration not stated)	165 to 166 °C
O=C(NCCc1c[nH]c2ccccc12)C1CCCCC1	98 to 99 °C
CC(CN(C)C)N1c2ccccc2Sc2ccc(C(=O)NCC3CC3)cc21 (racemic)	90 °C

SMILES	melting point
CCCC1=C(C(=O)OCC)C(c2csc3ccccc23)c2c[nH]nc2N1 (configuration not stated)	222 °C
O=S(=O)(CC(F)(F)F)N(Cc1cccnc1)c1cccc(Oc2ccccc2O)c1	57.5 to 60 °C
Cc1ccc(N=C=O)c(S(=O)(=O)Cl)c1	36 to 38.5 °C
COC(=O)c1ccccc1S(=O)(=O)NC(=O)Nc1nc(C)c(C)c(C)n1	152 to 161 °C
CN(C)CCCNS(=O)(=O)c1cccc(N)c1	89 to 93 °C
CC(=O)Cc1ccc(-c2ccc(Cl)cc2)cc1	79 to 81 °C
CC(C)(C)c1ccccc1COc1ccc(N)nn1	147 to 149 °C
Oc1ccc(-c2cnc3cnc(-c4ccccc4O)nc3c2)cc1	> 268 °C
COC(N)=CC(=O)C(C)(C)C	79 to 79.5 °C
CCc1ccc(NC2=CC3=NCN(C)C3=CC2(F)C(N)=O)c(F)c1 (configuration not stated)	249 to 251 °C
CCCN1N=C2C(=Cc3cccc(C(F)(F)F)c3)CSCC2C1c1cccc(C(F)(F)F)c1 (configuration not stated)	90 to 93.5 °C
CC1(C)N(C=O)CC(=O)N1CC(N)=O	211 to 213 °C
COc1cc(SC)ccc1C(=O)c1cnoc1C1CC1	108 °C
CC(=O)c1ccc(C=C(Cl)Cl)s1	81 to 85 °C
O=C(C=Cc1ccc2c(c1)OCO2)c1cccc(OCCCCBr)c1	97 to 98 °C
O=C(NO)c1ccc(CNC(=O)c2[nH]c(-c3cccs3)cc2-c2ccc(F)cc2)cn1	189 to 191 °C
CSc1ccc(N2CC=C(c3cccc(C)c3)CC2)nn1	130 °C
COc1cc2nc(N3CCN(C(=O)C=Cc4cccc(C(F)(F)F)c4)CC3)nc(N)c2cc1OC	225 to 227 °C
Clc1ccc2c(c1)C(c1ccccc1)=NCC1CNCCN21 (configuration not stated)	132 to 135 °C
CC(C)(C)OC(=O)N[C@@H](C(=O)O)C1(C)CCCCC1	127 to 130 °C
C=CCN(c1ccccc1)c1ncc(C(C)C(=O)O)s1 (configuration not stated)	134 to 135 °C

SMILES	melting point
O=C(NC1CCC(CNc2nc3c(s2)CCOc2ccccc2-3)CC1)OCc1ccccc1 (configuration not stated)	124 to 127 °C
CCOC(C)=NOc1nc(C(F)(F)F)cc(=O)n1-c1cc(Oc2ccccc2[N+](=O)[O-])c(Cl)cc1F	152 to 155 °C
CC1N=C(c2ccccc2F)c2cc(I)ccc2NC1=O (configuration not stated)	211 °C
Clc1ccc(N2CCN(CCCc3c4c(nn3-c3ccccn3)CCCC4)CC2)cc1	101 to 103 °C
CCOC(=O)c1cn2c3c(cc(C)cc3c1=O)C1CCCCC12 (configuration not stated)	107 to 109 °C
CC1CC(=O)NN=C1c1ccc(-n2ccc(CO)c2)cc1 (configuration not stated)	184 to 186 °C
CCCCCCCN(CCCCCSc1nc(-c2ccc(O)cc2)c(-c2ccc(O)cc2)[nH]1)C(=O)Nc1ccc(F)cc1F	110 to 112 °C
CC(=O)OC1CSC(Oc2ccnc(Br)c2)C(OC(C)=O)C1OC(C)=O (configuration not stated)	162 °C
COC(=O)c1cccc(-c2c(C#N)nn(-c3c(Cl)cc(C(F)(F)F)cc3Cl)c2N)c1	214 to 216 °C
COc1ccc(CCOc2cc(-c3cccc(C(=O)O)c3)ccn2)cc1OC	148 to 149 °C
COCOc1cc(F)ccc1-c1cc(-c2cccc(C(=O)OC)c2)c(C#N)c(NC(=O)c2ccco2)n1	160 to 162 °C
COc1cc(OC)c2c(=O)[nH]c(-c3cc(C)nc(C)c3)nc2c1	291 to 292 °C
Nc1ccc(C2CCc3ccccc3O2)cc1 (configuration not stated)	85 to 87 °C
Cc1ccc(N(c2ccc(-c3ccccc3)cc2)c2ccc(C)c(C)c2)cc1C	114 °C
CC(C)=NN=c1scc(C)n1C	139 to 140 °C
CS(=O)(=O)c1cc(-c2ccccc2)ncn1	109 to 111 °C
Cc1nnc(-c2ccc3occ(-c4ccccc4F)c3c2)o1	112 to 113 °C
COc1cc(CCNC(=O)Cc2ccc(Br)cc2)cc(OC)c1	86 to 88 °C
COc1c(C)c(C)c(OC)c(CC[C@](C)(O)CO)c1C	82 to 84 °C
